Data set [1] deals with T1, Peroxisome proliferator-activated receptor gamma/Nuclear receptor coactivator 1 (Homo sapiens, UniProt P37231). The data set can be described thus: TR-FRET dose response biochemical High Throughput Screening assay for agonists of the steroid receptor coactivator 1 (SRC-1) recruitment by the peroxisome proliferator-activated receptor gamma (PPAR gamma): non-selective agonists. [Related pubchem assays (depositor defined):AID1300, AID1808, AID504735, AID631]. The class given is protein assay. On the technique in general: Time-resolved FRET reads energy transfer from a long-lived donor to a nearby acceptor.

Data set [2] addresses T2, Peroxisome proliferator-activated receptor gamma/Nuclear receptor coactivator 3 (Homo sapiens, UniProt P37231). The data set can be described thus: TR-FRET dose response biochemical High Throughput Screening assay for agonists of the steroid receptor coactivator 3 (SRC-3) recruitment by the peroxisome proliferator-activated receptor gamma (PPAR gamma): non-selective agonists. [Related pubchem assays: 1301 (Confirmation screen.), 1048 (Primary screen.)]. Type of data set: functional.

Data set [3] addresses T3, Peroxisome proliferator-activated receptor gamma/Nuclear receptor coactivator 2 (Homo sapiens, UniProt P37231). The data set can be described thus: TR-FRET dose response biochemical High Throughput Screening assay for agonists of the steroid receptor coactivator 2 (SRC-2) recruitment by the peroxisome proliferator-activated receptor gamma (PPAR gamma): non-selective agonists. [Related pubchem assays: 1297, 1032 ]. Type of data set: functional.

The target in data set [4] is T3, Peroxisome proliferator-activated receptor gamma/Nuclear receptor coactivator 2. Type of data set: functional.
Data set [5] concerns the target T1, Peroxisome proliferator-activated receptor gamma/Nuclear receptor coactivator 1. Type of data set: functional.
Data set [6] addresses T2, Peroxisome proliferator-activated receptor gamma/Nuclear receptor coactivator 3. The class given is functional.
In data set [7] the target is Dual specificity tyrosine-phosphorylation-regulated kinase 1A (Rattus norvegicus, UniProt Q63470). Type of data set: biochemical, Homo sapiens.
The next data set deals with Genome polyprotein (dengue virus type 2, UniProt P29990). Nature of the data set: Dengue-2 NS5 methyltransferase inhibitors, primary screen, biochemical, confirmation dose response (AID 588689). Type of data set: functional.
Data set [8] has as its target T4, Polyadenylate-binding protein 1 (Homo sapiens, UniProt P11940). The data set can be described thus: PABP1 MLLE–PAM2 interaction inhibitors, dose response, miRNA deadenylation inhibitor project, biochemical, fluorescence polarization, Cy5-PAM2 peptide, secondary (AID 602260). The following applies: read-out: IC50_Mean. The class given is functional. On the technique in general: In fluorescence polarisation assays a small probe gives low polarisation when free and higher when bound to something large.

Data set [9] deals with T4, Polyadenylate-binding protein 1. The data set can be described thus: PABP1 MLLE–PAM2 binding inhibitor potency, dose response, biochemical, fluorescence polarization, FITC-PAM2 peptide (AID 602259). Type of data set: functional. The following applies: read-out: IC50_Mean.
The target in data set [10] is Eukaryotic translation initiation factor 4E (Mus musculus, UniProt P63073). Nature of the data set: eIF4E–eIF4G protein interaction inhibitors, dose response, biochemical, TR-FRET (AID 855).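 Also: potency for disrupting eIF4E binding to eIF4GI seen as loss of FRET.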 The class given is functional.
In data set [11] the target is DNA dC->dU-editing enzyme APOBEC-3G (Homo sapiens, UniProt Q9HC16). The data set can be described thus: Dose Response confirmation of small molecule APOBEC3G DNA Deaminase Inhibitors via a fluorescence-based single-stranded DNA deaminase assay. [Related pubchem assays (depositor defined):AID493012, AID493028]. Type of data set: functional.
In data set [12] the target is Voltage-dependent T-type calcium channel subunit alpha-1H (Homo sapiens, UniProt O95180). The class given is functional.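 Also: channel activity triggered by adding a high calcium stimulation buffer.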
The test system of the next data set is Escherichia coli. The data set can be described thus: microbe, parasite or virus in culture.
The next data set addresses T5, CAAX prenyl protease 2 (Saccharomyces cerevisiae S288c, UniProt Q03530).
T5 sequence (Q03530 whole entry): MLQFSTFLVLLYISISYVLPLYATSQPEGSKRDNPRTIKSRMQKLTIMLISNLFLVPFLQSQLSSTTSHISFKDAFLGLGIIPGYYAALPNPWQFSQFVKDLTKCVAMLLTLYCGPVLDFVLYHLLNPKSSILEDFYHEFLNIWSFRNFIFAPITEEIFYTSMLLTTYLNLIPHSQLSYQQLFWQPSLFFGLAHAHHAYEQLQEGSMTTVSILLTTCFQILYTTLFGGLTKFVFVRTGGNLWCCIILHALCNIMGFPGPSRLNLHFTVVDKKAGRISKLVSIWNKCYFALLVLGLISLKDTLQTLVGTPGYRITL
Type of data set: biochemical.

In a further data set the target is T6, Estrogen receptor (Homo sapiens, UniProt P03372).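 Also: potency for inhibiting coactivator peptide recruitment to the receptor.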
T6 sequence (P03372 whole entry): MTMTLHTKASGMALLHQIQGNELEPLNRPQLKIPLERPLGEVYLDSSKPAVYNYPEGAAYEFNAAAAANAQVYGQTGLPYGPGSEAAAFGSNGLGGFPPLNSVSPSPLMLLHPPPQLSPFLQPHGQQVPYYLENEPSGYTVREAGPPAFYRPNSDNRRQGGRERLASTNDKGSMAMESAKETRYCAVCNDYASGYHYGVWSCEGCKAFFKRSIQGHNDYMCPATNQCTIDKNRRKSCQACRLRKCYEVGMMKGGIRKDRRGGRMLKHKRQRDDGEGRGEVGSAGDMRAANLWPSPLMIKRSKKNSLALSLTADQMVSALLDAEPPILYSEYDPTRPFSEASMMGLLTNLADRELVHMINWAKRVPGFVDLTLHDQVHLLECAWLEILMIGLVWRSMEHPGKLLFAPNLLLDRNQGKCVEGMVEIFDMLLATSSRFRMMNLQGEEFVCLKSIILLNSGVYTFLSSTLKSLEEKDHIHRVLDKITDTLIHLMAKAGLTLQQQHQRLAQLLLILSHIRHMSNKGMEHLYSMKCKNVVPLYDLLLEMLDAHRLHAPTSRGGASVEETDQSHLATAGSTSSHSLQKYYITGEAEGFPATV

Another data set addresses Cytochrome P450 3A4 (Homo sapiens, UniProt P08684).
Data set [13] concerns the target T7, Cytochrome P450 2C9 (Homo sapiens, UniProt P11712).
The target in data set [14] is T7, Cytochrome P450 2C9. The source holds these as a separate data set.
Data set [15] has as its target Glyceraldehyde-3-phosphate dehydrogenase (Homo sapiens, UniProt P04406).
Data set [16] deals with T8, Alkaline phosphatase, tissue-nonspecific isozyme (Homo sapiens, UniProt P05186).
T8 sequence (P05186 whole entry): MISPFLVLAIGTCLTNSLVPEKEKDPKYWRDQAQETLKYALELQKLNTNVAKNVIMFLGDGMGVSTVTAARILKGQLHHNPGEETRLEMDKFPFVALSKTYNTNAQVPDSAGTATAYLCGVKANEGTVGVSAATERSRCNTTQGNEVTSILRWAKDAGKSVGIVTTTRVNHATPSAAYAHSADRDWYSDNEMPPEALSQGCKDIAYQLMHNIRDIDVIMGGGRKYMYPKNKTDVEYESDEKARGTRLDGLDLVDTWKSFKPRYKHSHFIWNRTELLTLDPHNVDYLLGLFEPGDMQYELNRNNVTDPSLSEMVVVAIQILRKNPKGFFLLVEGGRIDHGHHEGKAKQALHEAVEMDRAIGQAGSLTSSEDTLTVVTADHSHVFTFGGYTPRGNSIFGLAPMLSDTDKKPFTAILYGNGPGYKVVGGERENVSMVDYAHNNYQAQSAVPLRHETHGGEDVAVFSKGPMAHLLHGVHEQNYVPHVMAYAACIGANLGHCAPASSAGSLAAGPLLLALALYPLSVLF
Nature of the data set: human TNAP enzyme inhibitors, SAR follow-up, biochemical, luminescent, dose response (AID 1056).

Another data set deals with T9, Cysteine protease ATG4B (Homo sapiens, UniProt Q9Y4P1).
T9 sequence (Q9Y4P1 whole entry): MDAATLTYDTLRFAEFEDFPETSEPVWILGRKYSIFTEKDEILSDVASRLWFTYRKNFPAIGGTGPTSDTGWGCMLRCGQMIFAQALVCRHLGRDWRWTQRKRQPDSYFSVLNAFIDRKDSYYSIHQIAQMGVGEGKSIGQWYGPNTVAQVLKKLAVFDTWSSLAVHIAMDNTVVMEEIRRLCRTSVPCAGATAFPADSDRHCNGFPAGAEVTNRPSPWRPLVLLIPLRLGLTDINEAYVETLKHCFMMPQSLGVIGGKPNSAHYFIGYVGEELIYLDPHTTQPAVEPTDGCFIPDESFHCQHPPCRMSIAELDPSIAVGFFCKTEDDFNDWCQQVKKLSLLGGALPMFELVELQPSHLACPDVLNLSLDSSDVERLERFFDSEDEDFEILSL
Type of data set: functional.

The target of a further data set is Phospholipase A2 (Homo sapiens, UniProt P04054). The class given is functional.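 Also: confirmatory dose-response counterscreen on phospholipase A2, testing hits that came from an ultra-high-throughput screen for ATG4B inhibitors.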
Data set [17] deals with FAD-linked sulfhydryl oxidase ALR (Homo sapiens, UniProt P55789). Nature of the data set: inhibitors of human ALR sulfhydryl oxidase, dose response, biochemical, H2O2 detection, luminescence, cherry-pick (AID 493248).

The source made the active and inactive calls. Some results are limits rather than exact numbers.

Among the data in ChEMBL document CHEMBL1201862, “PubChem BioAssay data set” (2004) are EC50, AC50 and IC50 values, retold here.

Sequence of Voltage-dependent T-type calcium channel subunit alpha-1H (O95180 whole entry): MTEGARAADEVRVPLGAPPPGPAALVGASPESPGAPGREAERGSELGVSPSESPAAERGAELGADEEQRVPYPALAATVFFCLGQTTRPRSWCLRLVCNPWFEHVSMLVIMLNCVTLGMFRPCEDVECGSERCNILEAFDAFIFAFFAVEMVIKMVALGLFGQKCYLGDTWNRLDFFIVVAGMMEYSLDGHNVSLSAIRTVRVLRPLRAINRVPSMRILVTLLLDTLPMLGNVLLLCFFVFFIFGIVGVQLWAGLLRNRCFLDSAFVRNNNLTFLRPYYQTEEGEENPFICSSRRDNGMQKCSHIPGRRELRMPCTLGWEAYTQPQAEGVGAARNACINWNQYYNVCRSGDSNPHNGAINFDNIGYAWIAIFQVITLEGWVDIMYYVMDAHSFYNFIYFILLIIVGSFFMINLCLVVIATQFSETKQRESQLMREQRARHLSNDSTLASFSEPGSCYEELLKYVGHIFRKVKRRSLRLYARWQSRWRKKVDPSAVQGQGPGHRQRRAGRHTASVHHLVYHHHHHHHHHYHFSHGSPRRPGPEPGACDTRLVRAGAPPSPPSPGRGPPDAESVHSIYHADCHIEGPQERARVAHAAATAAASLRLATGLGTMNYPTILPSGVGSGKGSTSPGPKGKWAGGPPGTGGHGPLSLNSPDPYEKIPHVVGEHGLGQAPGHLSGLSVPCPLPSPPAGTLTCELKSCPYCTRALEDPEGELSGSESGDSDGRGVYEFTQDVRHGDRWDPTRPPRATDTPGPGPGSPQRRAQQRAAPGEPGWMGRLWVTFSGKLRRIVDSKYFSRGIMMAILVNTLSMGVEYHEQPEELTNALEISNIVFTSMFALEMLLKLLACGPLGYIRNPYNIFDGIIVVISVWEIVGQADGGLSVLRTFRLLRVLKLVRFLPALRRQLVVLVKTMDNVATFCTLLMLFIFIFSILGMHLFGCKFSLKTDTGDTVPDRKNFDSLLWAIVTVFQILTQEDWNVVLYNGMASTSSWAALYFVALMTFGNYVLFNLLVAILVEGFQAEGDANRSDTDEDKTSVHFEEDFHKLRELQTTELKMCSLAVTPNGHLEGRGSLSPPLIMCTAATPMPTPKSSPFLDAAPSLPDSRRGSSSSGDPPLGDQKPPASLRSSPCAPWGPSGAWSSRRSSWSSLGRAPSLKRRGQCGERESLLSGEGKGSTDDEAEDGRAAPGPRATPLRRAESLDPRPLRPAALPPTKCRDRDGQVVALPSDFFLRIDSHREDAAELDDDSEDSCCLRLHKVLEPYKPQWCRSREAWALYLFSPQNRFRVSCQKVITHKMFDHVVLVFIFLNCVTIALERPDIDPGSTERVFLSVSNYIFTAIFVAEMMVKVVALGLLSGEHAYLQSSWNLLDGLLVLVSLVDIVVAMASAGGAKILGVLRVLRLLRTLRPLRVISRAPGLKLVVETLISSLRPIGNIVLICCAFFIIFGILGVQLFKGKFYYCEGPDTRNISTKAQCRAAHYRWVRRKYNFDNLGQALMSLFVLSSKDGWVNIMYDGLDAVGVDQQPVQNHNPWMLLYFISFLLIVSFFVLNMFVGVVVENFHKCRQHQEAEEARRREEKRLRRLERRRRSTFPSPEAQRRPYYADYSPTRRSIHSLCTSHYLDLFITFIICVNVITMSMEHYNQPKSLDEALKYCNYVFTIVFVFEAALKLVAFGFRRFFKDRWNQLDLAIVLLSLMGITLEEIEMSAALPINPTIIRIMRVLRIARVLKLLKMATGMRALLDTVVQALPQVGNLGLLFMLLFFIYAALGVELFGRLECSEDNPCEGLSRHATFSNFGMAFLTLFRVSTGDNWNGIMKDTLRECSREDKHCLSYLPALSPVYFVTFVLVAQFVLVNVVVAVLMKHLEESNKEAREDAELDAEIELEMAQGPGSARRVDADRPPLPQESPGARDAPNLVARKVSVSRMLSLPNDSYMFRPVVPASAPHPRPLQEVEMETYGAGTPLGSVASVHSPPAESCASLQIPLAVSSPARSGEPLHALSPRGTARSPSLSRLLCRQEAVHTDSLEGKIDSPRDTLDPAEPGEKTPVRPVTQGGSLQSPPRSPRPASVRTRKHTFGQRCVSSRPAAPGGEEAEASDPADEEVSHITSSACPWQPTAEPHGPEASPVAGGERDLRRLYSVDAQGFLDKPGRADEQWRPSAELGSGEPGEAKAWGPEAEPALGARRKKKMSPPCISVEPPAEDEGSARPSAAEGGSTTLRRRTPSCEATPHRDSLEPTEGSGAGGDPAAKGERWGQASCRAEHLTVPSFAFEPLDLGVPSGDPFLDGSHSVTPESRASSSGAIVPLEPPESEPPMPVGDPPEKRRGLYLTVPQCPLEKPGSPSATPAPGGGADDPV
T3 sequence (P37231 whole entry): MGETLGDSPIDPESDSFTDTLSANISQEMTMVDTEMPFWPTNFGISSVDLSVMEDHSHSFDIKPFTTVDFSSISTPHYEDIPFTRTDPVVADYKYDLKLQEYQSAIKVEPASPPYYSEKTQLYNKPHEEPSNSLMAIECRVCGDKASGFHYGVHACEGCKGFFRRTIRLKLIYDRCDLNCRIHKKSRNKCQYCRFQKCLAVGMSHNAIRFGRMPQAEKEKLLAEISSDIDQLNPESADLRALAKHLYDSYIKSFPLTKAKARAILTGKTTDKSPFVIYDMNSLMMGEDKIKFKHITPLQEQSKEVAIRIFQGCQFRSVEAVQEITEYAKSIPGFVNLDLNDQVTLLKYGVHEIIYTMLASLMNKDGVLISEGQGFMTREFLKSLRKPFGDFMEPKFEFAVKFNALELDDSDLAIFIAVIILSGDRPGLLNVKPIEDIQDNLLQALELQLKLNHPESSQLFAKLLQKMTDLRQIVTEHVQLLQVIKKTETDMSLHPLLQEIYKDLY
T3 sequence (Q15596 whole entry, further chain): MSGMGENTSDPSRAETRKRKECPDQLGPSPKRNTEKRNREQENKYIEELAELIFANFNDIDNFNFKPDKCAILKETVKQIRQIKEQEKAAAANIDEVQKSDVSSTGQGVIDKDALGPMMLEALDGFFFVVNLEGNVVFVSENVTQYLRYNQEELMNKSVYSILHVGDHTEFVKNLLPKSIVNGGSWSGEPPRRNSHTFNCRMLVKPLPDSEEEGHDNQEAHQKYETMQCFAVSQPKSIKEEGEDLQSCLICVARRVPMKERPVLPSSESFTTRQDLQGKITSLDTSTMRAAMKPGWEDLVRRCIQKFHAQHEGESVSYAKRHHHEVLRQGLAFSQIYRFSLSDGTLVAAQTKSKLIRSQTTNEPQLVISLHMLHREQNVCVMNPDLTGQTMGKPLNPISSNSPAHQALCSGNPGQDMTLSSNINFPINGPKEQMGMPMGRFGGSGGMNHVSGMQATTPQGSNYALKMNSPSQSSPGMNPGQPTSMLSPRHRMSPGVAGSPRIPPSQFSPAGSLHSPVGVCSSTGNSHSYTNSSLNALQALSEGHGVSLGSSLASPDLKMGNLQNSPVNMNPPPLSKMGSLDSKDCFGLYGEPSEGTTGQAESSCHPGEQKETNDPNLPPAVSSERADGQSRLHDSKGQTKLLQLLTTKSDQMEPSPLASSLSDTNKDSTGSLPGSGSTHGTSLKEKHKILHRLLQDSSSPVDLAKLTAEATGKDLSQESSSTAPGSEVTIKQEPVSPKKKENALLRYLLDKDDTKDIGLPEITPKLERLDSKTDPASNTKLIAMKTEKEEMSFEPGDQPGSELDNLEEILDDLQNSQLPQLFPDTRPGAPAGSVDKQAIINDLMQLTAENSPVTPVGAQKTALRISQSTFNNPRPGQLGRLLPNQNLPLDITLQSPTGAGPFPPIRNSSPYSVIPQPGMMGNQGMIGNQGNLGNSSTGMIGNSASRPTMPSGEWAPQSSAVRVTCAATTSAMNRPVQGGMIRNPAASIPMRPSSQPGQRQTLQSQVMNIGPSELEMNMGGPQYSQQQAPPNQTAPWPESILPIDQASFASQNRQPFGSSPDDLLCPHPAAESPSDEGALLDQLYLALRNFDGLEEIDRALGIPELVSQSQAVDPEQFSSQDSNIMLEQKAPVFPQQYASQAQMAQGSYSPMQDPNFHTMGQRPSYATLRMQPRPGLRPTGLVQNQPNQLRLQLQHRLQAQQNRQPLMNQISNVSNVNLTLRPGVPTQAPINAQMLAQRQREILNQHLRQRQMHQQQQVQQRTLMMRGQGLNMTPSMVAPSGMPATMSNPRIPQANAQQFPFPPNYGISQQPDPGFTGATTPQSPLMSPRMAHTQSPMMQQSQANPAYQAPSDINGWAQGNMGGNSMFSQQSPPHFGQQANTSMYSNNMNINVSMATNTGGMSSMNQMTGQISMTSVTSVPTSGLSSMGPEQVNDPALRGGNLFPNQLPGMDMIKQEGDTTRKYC
Sequence of Glyceraldehyde-3-phosphate dehydrogenase (P04406 whole entry): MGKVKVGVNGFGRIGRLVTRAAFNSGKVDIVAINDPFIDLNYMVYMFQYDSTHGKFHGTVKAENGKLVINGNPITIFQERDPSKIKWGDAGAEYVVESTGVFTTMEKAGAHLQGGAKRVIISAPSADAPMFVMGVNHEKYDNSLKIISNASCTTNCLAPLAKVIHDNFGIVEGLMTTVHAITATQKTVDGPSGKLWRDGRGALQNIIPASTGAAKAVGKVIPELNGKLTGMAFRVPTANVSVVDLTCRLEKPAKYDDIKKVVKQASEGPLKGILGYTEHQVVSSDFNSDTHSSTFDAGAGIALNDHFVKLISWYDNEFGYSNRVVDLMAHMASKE
Sequence of Phospholipase A2 (P04054 whole entry): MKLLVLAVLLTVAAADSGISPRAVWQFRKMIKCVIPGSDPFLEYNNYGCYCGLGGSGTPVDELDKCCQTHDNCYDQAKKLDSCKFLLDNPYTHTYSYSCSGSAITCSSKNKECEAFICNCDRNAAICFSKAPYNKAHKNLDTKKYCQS
Sequence of FAD-linked sulfhydryl oxidase ALR (P55789 whole entry): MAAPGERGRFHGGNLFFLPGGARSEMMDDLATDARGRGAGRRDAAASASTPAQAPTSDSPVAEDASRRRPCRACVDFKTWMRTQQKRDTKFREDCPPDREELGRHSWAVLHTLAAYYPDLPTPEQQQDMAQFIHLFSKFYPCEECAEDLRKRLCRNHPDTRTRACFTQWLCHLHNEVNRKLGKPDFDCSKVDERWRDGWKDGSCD

Regarding `Cn1c(S)nnc1-c1sc2cc(C(F)(F)F)cnc2c1-c1cccs1`, the concentration for a half-maximal effect (EC50) was 6.65 µM (active) in data set [1], 34 µM (not active) in [2] and 12.6 µM (not active) in [3].

`COc1ccc(C(=O)C(C)(C)NO)cc1`: the EC50 in [4], in data set [5] and in data set [6] was > 79.4 µM (not active) throughout.

On to `C[N+](C)(CCOc1ccccc1)Cc1ccccc1.O=C([O-])c1cc2ccccc2c(Br)c1O`, for which the AC50 in data set [7] was 0.517 µM (active).

In the case of `COC(=O)C1=C(C(=O)OC)C(c2cc(Br)ccc2O)c2sc(O)nc2S1` (stereo not drawn), the IC50 at Genome polyprotein is 81.6 µM (active); in data set [8], > 66 µM (inactive); in data set [9], > 66 µM (inactive). Moreover, the AC50 in data set [7] is 24.6 µM (active).

`Clc1ccc(Cl)c(-c2nn3c(COc4ccccc4)nnc3s2)c1`: the IC50 in [10] is > 64 µM (inactive); in [11], 37 µM (active).

Regarding `CCCn1cc(SCC(=O)Nc2ccc3c(c2)OCO3)c2ccccc21`, in [12], the concentration giving a half-maximal response (EC50) is 5.11 µM (active).

Regarding `O=C(Nc1ccccc1Cl)C1CCN(Cc2cnn(-c3ccccc3)c2-n2cccc2)CC1`, in [12], the half-maximal effective concentration (EC50) was 2.74 µM (active).

For the compound `CN(CCCNC(=O)CSc1cc(=O)n(C)c2ccc(Cl)cc12)Cc1ccccc1`, the values for the EC50 in data set [1], in data set [2] and in data set [3] were > 79.4 µM (inactive), > 79.4 µM (not active) and > 79.4 µM (not active), respectively.

For the compound `CC(=O)Nc1cccc(NC(=O)c2cc3ccccc3o2)c1`, the AC50 in data set [7] is 11.5 µM (active).

`Cn1c(=O)cc(SCC(=O)NCCCN2CCN(c3ccccc3F)CC2)c2ccccc21`: the EC50 in [1] is > 79.4 µM (inactive); in data set [2], > 79.4 µM (not active); in [3], > 79.4 µM (not active).

As for `Cc1ccc(C)c(NC(=O)CCN2CCc3ccccc3C2)c1`, the AC50 with Escherichia coli is 58.7 µM (active).

`Cc1cc2cc(CCNC(=O)c3c(-c4ccccc4Cl)noc3C)c(=O)[nH]c2cc1C`: in data set [12], the EC50 is 4.77 µM (active).

Take `CN(C)CCN(C(=O)c1ccc2ccccc2c1)c1nc2ccc(F)cc2s1`: the AC50 on CAAX prenyl protease 2 is 6.44 µM (active).

In the case of `O=C(CSc1cccc(C(F)(F)F)c1)NC(=O)NCc1ccco1`, the IC50 on Estrogen receptor is recorded as > 50 µM (not active). In addition, the EC50 in data set [12] is 1.67 µM (active).

On to `CCOC(=O)c1c(NC(=O)CSc2nnc(CNc3ccc(F)cc3)o2)sc(C(C)=O)c1C`, for which the EC50 in data set [4] is on record as 42.5 µM (not active); in data set [5] it was 54.3 µM (not active); in data set [6] it was > 79.4 µM (not active).

On to `N#Cc1c(-c2ccccc2)cc(C2CC2)nc1SCC(=O)c1cccs1`, for which the concentration for a half-maximal effect (EC50) in data set [1] was 7.51 µM (active); in data set [2] it was 20.6 µM (not active); in data set [3], 7.18 µM (active). In addition, the values for the AC50 at Cytochrome P450 3A4 and on Cytochrome P450 2C9 [13] were 14.1 µM (inconclusive) and 0.0447 µM (inconclusive), respectively.

As for `CC(C(=O)NCc1ccc2c(c1)OCO2)N1c2cccc3cccc(c23)S1(=O)=O` (stereo not drawn), the concentration for a half-maximal effect (EC50) in [12] is 9.35 µM (active). Besides, the AC50 result on Cytochrome P450 2C9 [14] is on record as “inconclusive”.

`O=C(O)c1cc(-c2ccc(O)cc2)n[nH]1`: the IC50 in data set [15] was > 100 µM (not active); in data set [16], 14 µM (active).

`COc1ccc(-c2cc(C(=O)O)n[nH]2)cc1`: the IC50 was > 100 µM (not active) in data set [15] and 6.72 µM (active) in data set [16].

In the case of `COc1cccc(Cc2nnc(N3C(=O)[C@H]4CC=CC[C@H]4C3=O)[nH]2)c1`, the IC50 was > 100 µM (not active) in [15] and 2.48 µM (active) in data set [16].

`Cc1ccccc1S(=O)(=O)Nc1nc2ccccc2nc1N1CCc2ccccc2C1`: the IC50 was 29.9 µM (inactive) at Cysteine protease ATG4B and 16.8 µM (active) at Phospholipase A2.

For the compound `COc1ccc(/C=C/C(=O)OCc2cc(=O)n3c(n2)sc2ccccc23)cc1`, the AC50 in the data set with Escherichia coli was > 150 µM (inactive).

Regarding `O=C(NCc1ccccc1)c1[nH]cnc1C(=O)N1CCN(c2ccccc2)CC1`, the half-maximal activity concentration (AC50) is 6.21 µM (active) in data set [17] and 38.8 µM (active) in the data set on Escherichia coli.

Consider `Cc1ccc(C(=O)N2CC2C)cc1` (stereo not drawn), for which the AC50 in the data set with Escherichia coli is 25.4 µM (active).

For `CCc1nc(/C=C2\C(=O)Nc3ccccc32)c[nH]1`, the AC50 in data set [7] was 10.5 µM (active).

Consider `COc1cccc(/C=c2/s/c(=C(\C#N)C(=O)N3CCOCC3)n(-c3ccccc3)c2=O)c1`, for which the EC50 in [4], in data set [5] and in data set [6] was > 79.4 µM (not active) in each case.

The term EC50 denotes the concentration giving half of the maximal effect. As usually defined, the AC50 is the midpoint of the concentration-response curve, whichever way the signal moves.
